# Experiments:
# [1] = tested on: T cell line KSI 10B7; experiment: Mapping of epitope(s) recognised by T cell line KSI 10B7, IFN-γ ELISPOT with T2 cells as APC; type: cell-based, human; settings: individual peptides, triplicate
# Method: T cells were tested by IFN-γ ELISPOT assays against either the whole BAX peptide mixture (1-23), or different sub-pools (1-9, 10-15, 16-23) or individual peptides (10, 11, 12, 13, 14 and 15). T2 cells (which only express HLA-A*0201) were used as APC. All combinations were tested in triplicate, with 600 spots being the maximum number that could be counted in these assays; and
# Further immunomagnetic enrichment, flow sorting and expansion, led to the derivation of a T cell line (KSI 10B7), with 100% specificity for BAX peptides that bound to HLA-A*0201 (data not shown). This T cell line was tested by IFN-γ ELISPOT assays against either the whole BAX peptide mixture (1-23), or different sub-pools (1-9, 10-15, 16-23) or individual peptides (10, 11, 12, 13, 14 and 15). All combinations were tested in triplicate, with 600 spots being the maximum number that could be counted in these assays. KSI 10B7 T cells recognised two similar BAX peptides (10 and 13, FIG. 9). Both these peptides were predicted to bind to HLA-A*0201 (Table 4) and had similar amino acid sequences ([…] and […]). It is believed that the KSI 10B7 T cells recognised the […] sequence that is common to both peptides.
# [2] = tested on: CD8+ pentamer+ T lymphocytes; experiment: Peptide:HLA-A2 pentamer staining of CD8+ T cells from healthy HLA-A2+ donors after 14 days culture with peptide; type: cell-based, human
# Method: On day 0 and day 14 days, the numbers of peptide specific CD8^+ T cells were measured using appropriate fluoresceinated peptide:HLA-A2 pentamers. These were analysed on a flow cytometer and expressed as % of gated cells, excluding dead and […] cells.
# [3] = tested on: IFN-γ producing T cells specific for the immunising peptide; experiment: In vivo immunogenicity in HLA-A*0201 transgenic mice, IFN-γ ELISPOT on splenocytes; parameters: species or system HLA-A2/Kb transgenic mice; settings: responding/immunised mice; 100 μg peptide in incomplete freunds adjuvant, splenocytes after ten to eleven days
# [4] = tested on: CD8+ T cells recognising Rb7 peptide; experiment: Detection of peptide specific CD8+ T cells in patient blood with fluoresceinated multimeric HLA-A2/peptide complexes; type: cell-based, human; settings: 4 patients tested (3 with cervical cancer, 1 CIN3); low frequency
# Method: T cells reactive against peptides of the invention should be preferentially found in HLA-A2 patients with cervical cancer. Blood samples from 4 patients (3 with cervical cancer, 1 with premalignant disease, CIN3) were tested for the presence of CD8^+ T cells recognising Rb7 peptide. Fluoresceinated multimeric HLA-A2/peptide complexes were used to measure numbers of peptide specific T cells by flow cytometry (10). […] These frequencies were similar to those previously obtained for HPV16 E7 peptide specific T cells (10).
substance,measurement,setting,value
IMGWTLDFL [BAX peptide 13],Recognition by KSI 10B7 T cells,[1],recognised
"Rb7: peptide from Rb485-493 (Rb7) protein, derived from human Rb protein (SLLACALEV)","Frequency of peptide specific T lymphocytes, in words",[2]; 8 healthy donors (all HLA-A2+),variable but generally low frequencies
same,Healthy donors in whom T lymphocytes recognising the peptide could be detected,[2]; 8 healthy donors (all HLA-A2+) tested,8 healthy donors
same,Frequency of CD8+ pentamer+ cells,"[2]; healthy donor 1, 14 days culture with peptide",1/2500
same,Frequency of CD8+ pentamer+ cells,"[2]; healthy donor 2, 14 days culture with peptide",1/1000
same,Frequency of CD8+ pentamer+ cells,"[2]; healthy donor 3, 14 days culture with peptide",1/1000
same,Frequency of CD8+ pentamer+ cells,"[2]; healthy donor 4, 14 days culture with peptide",1/909
same,Frequency of CD8+ pentamer+ cells,"[2]; healthy donor 5, 14 days culture with peptide",1/120
same,Frequency of CD8+ pentamer+ cells,"[2]; healthy donor 6, 14 days culture with peptide",1/3333
same,Frequency of CD8+ pentamer+ cells,"[2]; healthy donor 7, 14 days culture with peptide",1/2000
same,Frequency of CD8+ pentamer+ cells,"[2]; healthy donor 8, 14 days culture with peptide",1/2500
same,Mice with significant T cell responses (IFN-γ ELISPOT),[3],7/10
same,Patients in whose blood T cells specific for Rb7 peptide could be detected,[4],2 patients
TIMGWTLDFL [BAX peptide 10],Recognition by KSI 10B7 T cells,[1],recognised

# Source: patent US8399610B2, “HPV vaccine comprising peptides from host cell proteins” (University College Cardiff Consultants Limited, priority 2004, dated 2013)
